The term IC50 denotes the concentration that inhibits the measured activity by half.

The text below walks through data of ChEMBL document CHEMBL6103661, “Identification of Phosphodiesterase-7 Inhibitors with Spiro[[1,3]oxazolo[5,4-f]quinazoline-9,1'-cyclohexan]-7-one Scaffold for the Treatment of Chronic Fatigue” (ACS Med Chem Lett, 2025).

For test [1], the target named is High affinity 3',5'-cyclic-AMP phosphodiesterase 7A (Homo sapiens, UniProt Q13946). Briefly: Inhibition of human recombinant PDE7A expressed in Sf9 insect cells using FAM-cAMP as substrate preincubated for 15 mins followed by substrate addition and measured after 30 mins by spectrofluorimetry.
The next test has as its system Soleus muscle. Briefly: Protection against 12.5 mM KCl-induced loss of contractile force in Sprague-Dawley rat soleus muscle assessed as mean residual contractile force at 1 uM pretreated for 10 mins followed by KCl stimulation at 5 mins interval for 30 mins and measured in presence of salbutamol by isometric force transducer method relative to control. It is filed as functional. The conditions noted are these: time 40 min.

The target in test [2] is 3',5'-cyclic-AMP phosphodiesterase 7B (Homo sapiens, UniProt Q9NP56). Kind of test: Inhibition of human recombinant PDE7B expressed in Sf9 insect cells using FAM-cAMP as substrate preincubated for 15 mins followed by substrate addition and measured after 30 mins by spectrofluorimetry.
Chain of 3',5'-cyclic-AMP phosphodiesterase 7B (Q9NP56 whole entry): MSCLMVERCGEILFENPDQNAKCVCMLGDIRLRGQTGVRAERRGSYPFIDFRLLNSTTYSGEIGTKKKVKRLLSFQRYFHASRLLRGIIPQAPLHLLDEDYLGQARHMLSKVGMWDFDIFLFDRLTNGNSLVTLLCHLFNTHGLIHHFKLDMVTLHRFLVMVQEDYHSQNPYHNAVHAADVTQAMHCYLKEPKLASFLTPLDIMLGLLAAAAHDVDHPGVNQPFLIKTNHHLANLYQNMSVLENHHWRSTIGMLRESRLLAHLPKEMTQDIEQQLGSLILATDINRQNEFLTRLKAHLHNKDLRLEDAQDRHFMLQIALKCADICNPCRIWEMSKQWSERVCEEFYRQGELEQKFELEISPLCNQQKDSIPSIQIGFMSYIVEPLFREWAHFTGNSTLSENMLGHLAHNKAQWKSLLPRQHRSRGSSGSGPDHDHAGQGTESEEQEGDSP

Chain of High affinity 3',5'-cyclic-AMP phosphodiesterase 7A (Q13946 whole entry): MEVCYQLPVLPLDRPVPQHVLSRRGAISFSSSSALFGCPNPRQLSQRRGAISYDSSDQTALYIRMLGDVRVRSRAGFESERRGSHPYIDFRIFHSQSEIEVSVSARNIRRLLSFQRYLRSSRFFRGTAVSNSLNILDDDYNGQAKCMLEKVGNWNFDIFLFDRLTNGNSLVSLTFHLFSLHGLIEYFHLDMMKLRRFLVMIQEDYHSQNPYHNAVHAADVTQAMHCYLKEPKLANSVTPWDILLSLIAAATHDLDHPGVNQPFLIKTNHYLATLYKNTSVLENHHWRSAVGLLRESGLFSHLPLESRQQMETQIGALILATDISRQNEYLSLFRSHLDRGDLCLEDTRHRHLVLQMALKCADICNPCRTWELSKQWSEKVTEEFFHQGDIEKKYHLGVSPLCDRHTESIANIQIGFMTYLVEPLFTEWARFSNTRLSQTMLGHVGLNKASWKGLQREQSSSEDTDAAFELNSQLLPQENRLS

For the molecule `CN(C)C1CCN(C(=O)c2cc3cc(Cl)c4c(c3o2)C2(CCCCC2)NC(=O)N4)CC1`, the IC50 was determined as 28 nM in test [1] and 58 nM in test [2]. In addition, the Activity in the test with Soleus muscle is 73.7%.

Regarding `CN(C)C(=O)CNCc1nc2cc(Cl)c3c(c2o1)C1(CCCCC1)NC(=O)N3`, the half-inhibitory concentration (IC50) in test [1] was 5.57 nM. Besides, in the test on Soleus muscle, the Activity stood at 60.5%.
